This is an account of results in article PMC7162861, “Synthesis, cytotoxicity, pharmacokinetic profile, binding with DNA and BSA of new imidazo[1,2-a]pyrazine-benzo[d]imidazol-5-yl hybrids” (Scientific Reports, 2020).

As usually defined, the melting point is the temperature, or range, at which the solid turns liquid.

Series [1] is described as follows: Experimental log P, shake-flask method. It counts as physicochemical. Particulars: n-octanol/phosphate buffer pH 7.4, read-out: Exp. Log P. The method, then: Partition coefficients or experimental log P values of all synthesized compounds (9–23, 30 and 31) were calculated using the shake-flask method. Log P values were determined using n-octanol and phosphate buffer (pH = 7.4) at 10:1 ratio of volumes. Stock solutions (10^−3 M) of compounds were prepared in DMSO. Glass vials were used to make final solutions i.e. stock solution (250 µL) and phosphate buffer (125 µL). To record the absorbance, wavelength was selected based on λmax of the respective compound. Initial absorbance (Ai) for every compound was noted consuming the stock solution in the buffer phase. Now added n-octanol to every vial and shaken well using a mechanical shaker for 50 minutes. To get separation of both phases, glass vials were centrifuged for 35 min. at 2500 rpm. Then, the layer of octanol was separated from glass vial. The final absorbance (Af) of each compound was recorded by using the buffer layer. The values of P for compounds were determined by the following equation (Eq. 8):8 P=Ai−Af/Af×Vw/Vo

In turn, `O=Cc1ccc(-c2cn3ccnc3c(-c3ccc4c(c3)ncn4C3CCCCC3)n2)cc1` [Compound 11, 4-(8-(1-cyclohexyl-1H-benzo[d]imidazol-5-yl)imidazo[1,2-a]pyrazin-6-yl)benzaldehyde] gave a melting point of 201 to 203 °C. Further, the logP in series [1] is 0.23.
In the case of `Cc1cccc(-c2cn3ccnc3c(-c3ccc4c(c3)ncn4C3CCCCC3)n2)c1` [Compound 15, 8-(1-cyclohexyl-1H-benzo[d]imidazol-5-yl)-6-(m-tolyl)imidazo[1,2-a]pyrazine], the melting point was 183 to 186 °C. In series [1], the logP was 1.54.
Taken in the same sequence, the figures for `CCc1ccc(-c2cn3ccnc3c(-c3ccc4c(c3)ncn4C3CCCCC3)n2)cc1` [Compound 16, 8-(1-cyclohexyl-1H-benzo[d]imidazol-5-yl)-6-(4-ethylphenyl)imidazo[1,2-a]pyrazine] were 182 to 185 °C and 1.74.
Taken in the same sequence, the figures for `CC(=O)c1ccc(-c2cn3ccnc3c(-c3ccc4c(c3)ncn4C3CCCCC3)n2)cc1` [Compound 17, 1-(4-(8-(1-cyclohexyl-1H-benzo[d]imidazol-5-yl)imidazo[1,2-a]pyrazin-6-yl)phenyl)ethan-1-one] were 200 to 203 °C and 1.41.
Taken in the same sequence, the figures for `Clc1ccc(-c2cn3ccnc3c(-c3ccc4c(c3)ncn4C3CCCCC3)n2)cc1` [Compound 18, 6-(4-chlorophenyl)-8-(1-cyclohexyl-1H-benzo[d]imidazol-5-yl)imidazo[1,2-a]pyrazine] were 193 to 196 °C and 1.34.
As to `Brc1ccc(-c2cn3ccnc3c(-c3ccc4c(c3)ncn4C3CCCCC3)n2)cc1` [Compound 19, 6-(4-bromophenyl)-8-(1-cyclohexyl-1H-benzo[d]imidazol-5-yl)imidazo[1,2-a]pyrazine], the melting point is 195 to 198 °C. Moreover, the logP in series [1] is 2.05.
In the case of `COc1ccccc1-c1cn2ccnc2c(-c2ccc3c(c2)ncn3C2CCCCC2)n1` [Compound 20, 8-(1-cyclohexyl-1H-benzo[d]imidazol-5-yl)-6-(2-methoxyphenyl)imidazo[1,2-a]pyrazine], the melting point fell in the range of 195 to 198 °C. For the same compound, in series [1], the logP was determined as 1.88.
In turn, `Fc1ccccc1-c1cn2ccnc2c(-c2ccc3c(c2)ncn3C2CCCCC2)n1` [Compound 21, 8-(1-cyclohexyl-1H-benzo[d]imidazol-5-yl)-6-(2-fluorophenyl)imidazo[1,2-a]pyrazine] yielded a melting point of 190 to 193 °C. In series [1], the logP is 1.77.
`FC(F)(F)c1cccc(-c2cn3ccnc3c(-c3ccc4c(c3)ncn4C3CCCCC3)n2)c1` [Compound 23, 8-(1-cyclohexyl-1H-benzo[d]imidazol-5-yl)-6-(3-(trifluoromethyl)phenyl)imidazo[1,2-a]pyrazine] displayed a melting point of 196 to 199 °C. The logP in series [1] came to 1.67.
